This is an account of results in patent US6245968A, “Mutated hydroxyphenylpyruvate dioxygenase, DNA sequence and isolation of plants which contain such a gene and which are tolerant to herbicides” (Aventis CropScience S.A., priority 1997, dated 2001).

In series [1] the test system is O=C(O)C(=O)Cc1ccc(O)cc1. Description: HPPD activity by HPLC determination of homogentisate (Km, IC50). The format is biochemical. The settings on record: other: Km of the HPPD for HPP, crude extract, 30° C., pH7.5, pH 7.5. On the procedure:
(§1) Glycine318, replaced with alanine, designated SyA318, similar to PfA334 (in Example 3).
(§2) The mutants SyN318 and SyA318 which were obtained in the previous example were examined, in comparison with the unmutated HPPD of Synechocystis, for the biochemical characteristics Km and IC50 with regard to an HPPD inhibitor, i.e. 2-cyano-3-cyclopropyl-1-(2-methylsulphonyl-4-trifluoromethylphenyl)propane-1,3-dione. This analysis was carried out using the following protocol:
(§3) The HPPD activity is measured by determining, by means of high performance liquid chromatography (HPLC), the quantity of product, i.e. homogentisate,which is formed after incubating the enzyme with its substrate HPP. Injecting different amounts of homogentisate, varying from 12 to 48 nmoles, into the column enables the retention time of the homogentisate to be determined and the peak area to be correlated with the quantity of product injected.
(§4) The activity measurements are carried out in a final volume of […] containing: 12.6 mM ascorbate, […] iron (FeH8N2O8S2,6H2O) (previously prepared in 0.1 M tris-acetate buffer, pH6), […] of crude extract containing the HPPD, […] HPP and 0.1 M tris-acetate buffer, pH7.5. The enzyme is firstly incubated with the iron at 30° C. for 1 min and then with the ascorbate at 30° C. for 5 min before the reaction is started by adding the substrate, i.e. the HPP. The incubation is continued at 30° C. for 1 min 30sec and the reaction is then stopped by adding […] of 20% perchloric acid. The proteins are then removed by centrifuging for 5min at 15,300 rpm and at 20° C. The supernatant is recovered. The quantity of homogentisate formed is then analysed by injecting […] of assay mixture into a Pico TagC18 column which is connected to the HPLC system. […] On leaving the column, the homogentisate is detected by measuring absorbance at 288 nm. The quantity of product formed is defined by the area of the peak on the chromatogram.
(§5) The Km of the HPPD for HPP is determined by measuring the initial velocity of the reaction using different concentrations of HPP. […]

Series [2] concerns the target T1, Synechocystis PCC6803 HPPD variant SyA318 (Glycine318 replaced with alanine) (Synechocystis sp., UniProt Q55810, G318A).
T1 construct: made in house; host or cells: E. coli, vector ptrc-99 A; crude extract (JM105 is named for the unmutated plasmid)
The series is described as above. The format is biochemical. As for the experimental part: as §1, §2, §3, §4, §5

Series [3] concerns Synechocystis PCC6803 HPPD variant SyA318 (Glycine318 replaced with alanine). The description is as above. In kind it is biochemical. The settings on record: SyA318 versus unmutated Synechocystis HPPD; 10 min. On the procedure:
as §1, §2, §3, §4, §5

The target of series [4] is T2, Synechocystis PCC6803 HPPD, unmutated (Synechocystis sp., UniProt Q55810).
T2 construct: expressed in transfected cells; host or cells: E. coli JM105, vector ptrc-99 A, IPTG-induced
T2 sequence (Q55810 1-339): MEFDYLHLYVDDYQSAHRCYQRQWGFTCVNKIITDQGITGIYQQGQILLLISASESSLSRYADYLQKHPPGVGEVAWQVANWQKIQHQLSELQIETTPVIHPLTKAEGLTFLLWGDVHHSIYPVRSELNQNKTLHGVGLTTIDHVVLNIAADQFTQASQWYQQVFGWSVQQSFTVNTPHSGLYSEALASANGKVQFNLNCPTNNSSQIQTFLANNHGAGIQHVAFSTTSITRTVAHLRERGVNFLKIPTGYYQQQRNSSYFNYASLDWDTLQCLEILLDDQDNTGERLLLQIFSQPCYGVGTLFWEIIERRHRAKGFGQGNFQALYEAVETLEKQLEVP
Description: Colorimetric screening test (browning of medium) in E. coli. The format is cell-based. The settings on record: 7 mM inhibitor, 1 mM IPTG. As for the experimental part:
(§6) A culture medium of the YT broth type, containing 1% agarose (Gibco BRL ultra pure), 5 mM L-tyrosine (Sigma) and the agent for selecting the above mentioned pRPC vector, is dispensed into a 96-well plate at the rate of […] per well. 10 microliter of a culture of E.coli in the exponential phase of growth and harbouring the pRPC vector are dispensed into each well. After 16 hours at 37° C., the wells which only contain the culture medium, or those which have been seeded with an E. coli culture harbouring the vector pKK233-2, are translucent whereas the wells which have been seeded with an E. coli culture harbouring the vector pRPC are coloured brown.
The dioxygenase activity of the Synechocystis HPPD which had thus been obtained was observed by the browning of the medium, using the previously described colorimetric test, with addition of IPTG (isopropyl-b-D-thiogalactopyranoside) at a concentration of 1 mM in order to induce expression of the protein.

Series [5] relates to Pseudomonas fluorescens A32 HPPD, wild type (unmutated, vector pRPC). The description is as above. In kind it is cell-based. The note with it: 7 mM inhibitor.
From the text: The vector pRPA (described in application WO96/38567), which contains a genomic DNA fragment and the coding region of the gene for HPPD from Pseudomonas fluorescens A32, was digested with NcoI, purified and then ligated into the expression vector pKK233-2 (Clontech), which itself was digested with NcoI, the site for which forms a unique cloning site in this vector. The orientation of the gene in the resulting pRPC vector which permitted expression under the control of the trc promoter was verified.
as §6, with “brown. […]” for “brown.”

In series [6] the target is T3, Synechocystis PCC6803 HPPD variant SyN318 (Glycine318 replaced with asparagine) (Synechocystis sp., UniProt Q55810, G318N).
T3 construct: made in house; host or cells: E. coli, vector ptrc-99 A; crude extract (JM105 is named for the unmutated plasmid)
The series is described as follows: HPPD activity by HPLC determination of homogentisate (Km, IC50). The format is biochemical. As for the experimental part: (§7) Glycine318, replaced with asparagine, designated SyN318, similar to PfD334 (in Example 3).
as §2, §3, §4, §5

Series [7] relates to Synechocystis PCC6803 HPPD variant SyN318 (Glycine318 replaced with asparagine). Described as above. The note with it: SyN318 versus unmutated Synechocystis HPPD; 10 min. The format is biochemical. On the procedure: as §7, §2, §3, §4, §5
Series [8] addresses Synechocystis PCC6803 HPPD, native (unmutated) (Synechocystis sp., UniProt Q55810). The description is as above.
Series [9] deals with T3, Synechocystis PCC6803 HPPD variant SyN318 (Glycine318 replaced with asparagine). Description: Colorimetric screening test (browning of medium) in E. coli. In kind it is cell-based. The note with it: 7 mM inhibitor. As for the experimental part:
as §6
(§8) With several mutants at position 334 in Pseudomonas fluorescens having been obtained, two site-directed mutagenesis experiments (U.S.E., Pharmacia) were carried out using the oligonucleotides MUGLYA and MUGLYB, which oligonucleotides were intended to replace the glycine at position 318 (of Synechocystis corresponding to the glycine at position 334 of P.fluorescens) either with an asparagine or a serine or with a proline or an alanine (SEQ ID NO 18 and 19).
(§9) One mutant from each experiment was sequenced.
as §7

For series [10], the target named is T1, Synechocystis PCC6803 HPPD variant SyA318 (Glycine318 replaced with alanine). The description is as above. The format is cell-based. The note with it: 7 mM inhibitor. As for the experimental part:
as §6, §8, §9, §1

Series [11] has as its system Pseudomonas fluorescens A32 HPPD variant PfP334 (Glycine334 replaced by proline). Described as above. In kind it is cell-based. The settings on record: 7 mM inhibitor, score 0 to 10. On the procedure:
as §6
(§10) A series of samples was made up with identical culture medium which contained varying concentrations (0 mM to 14 mM) of 2-cyano-3-cyclopropyl-1-(2-methylsulphonyl-4-trifluoromethylphenyl)propane-1,3-dione (EP 0496631), which was dissolved in water and brought to pH7.5. This molecule is a diketonitrile which is recognized as being an effective inhibitor of HPPD activity (Pallett, K. E. et al., 1997. Pestic. Sci. 50, 83-84).

Series [12] has as its system Pseudomonas fluorescens A32 HPPD variant PfW334 (Glycine334 replaced by tryptophan). Described as above. The format is cell-based. The settings on record: 7 mM inhibitor, score 0 to 10. As for the experimental part:
as §6, §10

Series [13] relates to Pseudomonas fluorescens A32 HPPD variant PfS334 (Glycine334 replaced by serine). The series is described as above. The settings on record: 7 mM inhibitor, score 0 to 10. In kind it is cell-based. On the procedure:
as §6, §10

Series [14] relates to Pseudomonas fluorescens A32 HPPD variant PfL333 (Phenylalanine333 replaced by leucine). The description is as above. The format is cell-based. The note with it: 7 mM inhibitor, score 0 to 10. As for the experimental part:
as §6, §10

Series [15] relates to Pseudomonas fluorescens A32 HPPD variant PfL215 (proline 215 replaced by leucine). The series is described as above. The format is cell-based. The note with it: 7 mM inhibitor, score 0 to 10. As for the experimental part:
as §6, §10

For series [16], the system named is Pseudomonas fluorescens A32 HPPD variant PfD334 (Glycine334 replaced by aspartic acid). The description is as above. The format is cell-based. The settings on record: 7 mM inhibitor, score 0 to 10. On the procedure: as §6, §10
The test system of series [17] is Pseudomonas fluorescens A32 HPPD variant PfE298 (Gly298 replaced by glutamic acid). The series is described as above. In kind it is cell-based. The settings on record: 7 mM inhibitor. As for the experimental part:
as §6, §10

Series [18] relates to O=C(O)C(=O)Cc1ccc(O)cc1. Description: cells, lysate or membranes named. The settings on record: other: Km of the HPPD for HPP, crude extract, 30° C., pH7.5, pH 7.5.
Series [19] concerns O=C(O)C(=O)Cc1ccc(O)cc1. Description: HPPD activity by HPLC determination of homogentisate (Km, IC50). The format is biochemical. The note with it: other: Km of the HPPD for HPP, crude extract, 30° C., pH7.5, pH 7.5. On the procedure:
as §7, §2, §3, §4, §5
The source holds these as a separate data set.

Regarding “Synechocystis PCC6803 HPPD variant SyA318 (Glycine318 replaced with alanine) (Synechocystis sp. PCC 6803 substr. Kazusa; G318A)”, in the series on O=C(O)C(=O)Cc1ccc(O)cc1 [1], the Km was 320 µM.

Regarding `CS(=O)(=O)c1cc(C(F)(F)F)ccc1C(=O)C(C#N)C(=O)C1CC1` (stereo not drawn) [2-cyano-3-cyclopropyl-1-(2-methylsulphonyl-4-trifluoromethylphenyl)propane-1,3-dione], the values for the IC50 in series [2], in [6] and in series [8] were 40 µM, 80 µM and 0.08 µM, respectively. Further, the “ratio of the IC50 of a mutant HPPD to the IC50 of the non-mutant HPPD” value is 500 in series [3] and 1000 in [7]. Also, in series [4], the “browning of the medium in the colorimetric test” value is on record as “no browning of the medium”. Moreover, the “colour of the bacterial culture in the colorimetric test” value in [5] (dissolved in water, pH7.5) is on record as “totally without colour”. Besides, the “Activity in the screening test using a selective agent dose of 7 mM” value came to 0 in [5] (score 0 to 10); 5 in series [11]; 6 in [12]; 7 in [13]; 4 in series [14]; 7 in series [15]. The “Activity in the screening test using a selective agent dose of 7 mM” value is 1 in [16] and 3 in series [17] (score 0 to 10). The “browning of the screening medium” value in series [9] and in series [10] was “caused browning of the screening medium” each time. Also, the “colour of the screening medium” value in [17] is given as “turn brown”.

Take “Synechocystis PCC6803 HPPD, native (unmutated) (Synechocystis sp. PCC 6803 substr. Kazusa)”: the Km in the series with O=C(O)C(=O)Cc1ccc(O)cc1 [18] was 60 µM.

Take “Synechocystis PCC6803 HPPD variant SyN318 (Glycine318 replaced with asparagine) (Synechocystis sp. PCC 6803 substr. Kazusa; G318N)”: the Km in the series on O=C(O)C(=O)Cc1ccc(O)cc1 [19] stood at 470 µM.
